In ChEMBL document CHEMBL4402592, “Targeting Endoplasmic Reticulum α-Glucosidase I with a Single-Dose Iminosugar Treatment Protects against Lethal Influenza and Dengue Virus Infections” (J Med Chem, 2020):
The source made the active and inactive calls. The rule behind the calls is not given here.

Tested on: Influenza A virus
Experiment: Antiviral activity against Influenza A virus (A/PA/10/2010 (H3N2)) infected in BALB/c mouse assessed as increase in animal survival rate at 10 mg/kg, po administered via gavage starting at 8 hrs post infection and continuing BID for 6 days
Format: functional, organism-based

For `CCOC(=O)C1=C[C@@H](OC(CC)CC)[C@H](NC(C)=O)[C@@H](N)C1`, the Activity was “Active”.
